The results in this text go back to patent US20240382483A1, “HETEROCYCLIC EGFR INHIBITORS FOR USE IN THE TREATMENT OF CANCER” (Blueprint Medicines Corporation, priority 2021, published 2024).

Usually IC50 stands for the midpoint of a concentration-inhibition curve.

One experiment deals with T1, EGFR (L858R T790M C797S) (Homo sapiens, UniProt P00533, C797S/L858R/T790M).
T1 construct: purchased SignalChem E10-122VG
Briefly: Biochemical EGFR inhibition assay (Caliper mobility shift), EGFR LRTMCS. Conditions: LRTMCS (PH) IC50 (nM) @ 1 mM ATP (Num), EGFR LRTMCS mutant. On the procedure: Reactions proceeded until between 10% to 20% total peptides were phosphorylated at room temperature (25° C.) and were terminated with 35 mM 2,2′,2″,2′″-(ethane-1,2-diyldinitrilo)tetraacetic acid (EDTA). Product was detected using the Caliper mobility shift detection method where the phosphorylated peptide (product) and substrate were electrophoretically separated and measured. Percent activity was plotted against log concentration of compound and points to generate an apparent IC50.

Experiment [1] has as its target T2, intracellular phosphorylation of EGFR in NCI-H1975 cell line that harbors the EGFR L858R T790M mutations (Homo sapiens, UniProt P00533, L858R/T790M).
T2 construct: NCI-H1975 cell line that harbors the EGFR L858R T790M mutations (ATCC, CRL-5908); host or cells: NCI-H1975
Briefly: NCI-H1975 pEGFR AlphaLISA assay. In kind it is cell-based. Conditions: NCI-H1975 cells (EGFR L858R T790M), p-EGFR (Tyr1068), 4-5 hours incubation; read-out: Ext pEGFR H1975 GMean IC50 (nM) Protocol: @Pharmaron AlphaLISA (Num). The procedure:
On the next day, the test compounds and DMSO control were added into H1975 cell plate followed by incubation at 37C/5% CO2 for 4-5 hours. […] Then 5 μL of a donor bead mix was added to each well followed by overnight incubation at room temperature in dark. On the next day, the plate was read at a compatible plate reader to obtain pEGFR signal. Percent of pEGFR inhibition was plotted against log concentration of compounds to generate IC50 values.

T2 sequence (P00533 25-1210 T790M/L858R): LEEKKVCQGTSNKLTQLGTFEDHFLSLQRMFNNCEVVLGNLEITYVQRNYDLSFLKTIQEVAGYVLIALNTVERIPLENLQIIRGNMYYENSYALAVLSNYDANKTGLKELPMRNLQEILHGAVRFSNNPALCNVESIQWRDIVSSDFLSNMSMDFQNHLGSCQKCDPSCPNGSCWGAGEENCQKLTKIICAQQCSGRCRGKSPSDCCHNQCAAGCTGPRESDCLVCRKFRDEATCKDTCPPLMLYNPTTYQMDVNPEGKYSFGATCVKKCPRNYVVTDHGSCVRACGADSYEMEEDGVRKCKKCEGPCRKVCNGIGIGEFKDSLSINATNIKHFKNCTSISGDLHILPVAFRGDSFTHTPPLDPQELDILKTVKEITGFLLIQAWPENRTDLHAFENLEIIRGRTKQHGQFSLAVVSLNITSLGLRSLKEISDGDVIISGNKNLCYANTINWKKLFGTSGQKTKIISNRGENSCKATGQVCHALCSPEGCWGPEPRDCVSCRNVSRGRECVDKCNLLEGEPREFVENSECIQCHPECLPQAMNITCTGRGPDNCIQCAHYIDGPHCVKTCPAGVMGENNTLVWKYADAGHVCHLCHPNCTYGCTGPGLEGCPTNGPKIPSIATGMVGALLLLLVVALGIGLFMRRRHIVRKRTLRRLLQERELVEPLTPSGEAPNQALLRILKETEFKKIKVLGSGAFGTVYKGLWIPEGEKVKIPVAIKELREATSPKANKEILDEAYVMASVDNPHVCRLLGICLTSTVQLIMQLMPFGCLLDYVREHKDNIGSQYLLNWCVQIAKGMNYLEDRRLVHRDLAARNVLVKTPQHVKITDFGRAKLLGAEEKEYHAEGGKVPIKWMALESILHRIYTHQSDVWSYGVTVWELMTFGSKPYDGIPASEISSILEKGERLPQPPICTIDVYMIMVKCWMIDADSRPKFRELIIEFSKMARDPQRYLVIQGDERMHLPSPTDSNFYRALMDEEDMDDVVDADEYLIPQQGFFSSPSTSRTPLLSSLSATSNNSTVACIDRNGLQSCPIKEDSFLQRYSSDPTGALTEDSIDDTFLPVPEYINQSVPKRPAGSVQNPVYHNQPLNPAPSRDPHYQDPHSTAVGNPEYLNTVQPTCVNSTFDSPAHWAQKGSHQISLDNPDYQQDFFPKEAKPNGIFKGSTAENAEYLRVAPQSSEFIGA
T1 sequence (P00533 25-1210 T790M/C797S/L858R): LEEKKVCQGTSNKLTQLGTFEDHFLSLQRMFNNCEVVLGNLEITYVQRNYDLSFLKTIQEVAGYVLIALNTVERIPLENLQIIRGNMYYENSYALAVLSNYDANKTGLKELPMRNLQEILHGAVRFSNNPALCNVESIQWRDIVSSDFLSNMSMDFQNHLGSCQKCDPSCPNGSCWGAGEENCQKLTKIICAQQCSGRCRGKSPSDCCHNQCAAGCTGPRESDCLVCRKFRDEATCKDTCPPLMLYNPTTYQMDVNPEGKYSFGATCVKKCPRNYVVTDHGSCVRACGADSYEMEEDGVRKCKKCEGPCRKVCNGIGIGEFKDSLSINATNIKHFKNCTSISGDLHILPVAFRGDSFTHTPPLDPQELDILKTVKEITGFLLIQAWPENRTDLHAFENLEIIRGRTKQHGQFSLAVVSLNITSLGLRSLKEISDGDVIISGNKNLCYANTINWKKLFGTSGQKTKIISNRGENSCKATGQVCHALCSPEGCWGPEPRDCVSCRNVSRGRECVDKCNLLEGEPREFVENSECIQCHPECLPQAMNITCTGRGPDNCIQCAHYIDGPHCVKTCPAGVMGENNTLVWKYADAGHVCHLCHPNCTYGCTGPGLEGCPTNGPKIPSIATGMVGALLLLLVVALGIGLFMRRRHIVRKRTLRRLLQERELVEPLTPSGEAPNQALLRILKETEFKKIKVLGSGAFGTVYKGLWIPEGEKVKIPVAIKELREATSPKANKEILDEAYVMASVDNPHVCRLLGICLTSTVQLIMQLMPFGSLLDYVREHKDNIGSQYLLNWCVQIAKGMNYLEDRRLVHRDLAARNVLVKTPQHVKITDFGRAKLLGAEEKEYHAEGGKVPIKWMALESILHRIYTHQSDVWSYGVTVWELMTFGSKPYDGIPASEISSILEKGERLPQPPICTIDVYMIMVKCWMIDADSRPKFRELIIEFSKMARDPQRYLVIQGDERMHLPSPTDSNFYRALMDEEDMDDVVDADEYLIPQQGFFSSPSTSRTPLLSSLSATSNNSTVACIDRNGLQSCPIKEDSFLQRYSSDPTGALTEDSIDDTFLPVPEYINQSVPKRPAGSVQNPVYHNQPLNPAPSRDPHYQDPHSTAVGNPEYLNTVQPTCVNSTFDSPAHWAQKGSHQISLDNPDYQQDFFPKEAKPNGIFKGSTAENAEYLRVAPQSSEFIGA

On to `CO[C@@H]1CCN(c2nccc(Nc3cc4c(C(C)C)cnc(N5CC6(CCS6(=O)=O)C5)c4cn3)n2)C[C@@H]1O` (single isomer, unassigned) [Example 124, 6-(6-((2-((3S,4R)-3-hydroxy-4-methoxypiperidin-1-yl)pyrimidin-4-yl)amino)-4-isopropyl-2,7-naphthyridin-1-yl)-1-thia-6-azaspiro[3.3]heptane 1,1-dioxide or 6-(6-((2-((3R,4S)-3-hydroxy-4-methoxypiperidin-1-yl)pyrimidin-4-yl)amino)-4-isopropyl-2,7-naphthyridin-1-yl)-1-thia-6-azaspiro[3.3]heptane 1,1-dioxide], for which the values for the IC50 (on EGFR (L858R T790M C797S); in experiment [1]) were less than 15 nM and 30 to 50 nM, respectively.
For the compound `CO[C@@H]1CCN(c2nccc(Nc3cc4c(C(C)C)ccc(N5CC6(CCS6(=O)=O)C5)c4cn3)n2)C[C@@H]1O` (single isomer, unassigned) [Example 125, 6-(3-((2-((3S,4R)-3-hydroxy-4-methoxypiperidin-1-yl)pyrimidin-4-yl)amino)-5-isopropylisoquinolin-8-yl)-1-thia-6-azaspiro[3.3]heptane 1,1-dioxide or 6-(3-((2-((3R,4S)-3-hydroxy-4-methoxypiperidin-1-yl)pyrimidin-4-yl)amino)-5-isopropylisoquinolin-8-yl)-1-thia-6-azaspiro[3.3]heptane 1,1-dioxide], the IC50 is less than 15 nM on EGFR (L858R T790M C797S) and 30 to 50 nM in experiment [1].
The like results for `CO[C@@H]1CCN(c2cc(Nc3cc4c(C(C)C)ccc(N5CC(n6ccnn6)C5)c4cn3)ccn2)C[C@@H]1O` (single isomer, unassigned) [Example 126, (3S,4R)-1-(4-((8-(3-(1H-1,2,3-triazol-1-yl)azetidin-1-yl)-5-isopropylisoquinolin-3-yl)amino)pyridin-2-yl)-4-methoxypiperidin-3-ol or (3R,4S)-1-(4-((8-(3-(1H-1,2,3-triazol-1-yl)azetidin-1-yl)-5-isopropylisoquinolin-3-yl)amino)pyridin-2-yl)-4-methoxypiperidin-3-ol] were, in that order, less than 15 nM and 10 to 20 nM.
The like results for `CO[C@H]1CCN(c2cc(Nc3cc4c(C(C)C)ccc(N5CC(n6ccnn6)C5)c4cn3)ccn2)C[C@@H]1O` (single isomer, unassigned) [Example 127, (3S,4S)-1-(4-((8-(3-(1H-1,2,3-triazol-1-yl)azetidin-1-yl)-5-isopropylisoquinolin-3-yl)amino)pyridin-2-yl)-4-methoxypiperidin-3-ol or (3R,4R)-1-(4-((8-(3-(1H-1,2,3-triazol-1-yl)azetidin-1-yl)-5-isopropylisoquinolin-3-yl)amino)pyridin-2-yl)-4-methoxypiperidin-3-ol] were, in that order, 15 to 20 nM and 10 to 20 nM.
The like results for `CC(C)c1cnc(N2CC3(CCS3(=O)=O)C2)c2cnc(Nc3ccnc(N4C[C@@H](F)[C@@H](O)C(C)(C)C4)n3)cc12` (single isomer, unassigned) [Example 132, 6-(6-((2-((4S,5R)-5-fluoro-4-hydroxy-3,3-dimethylpiperidin-1-yl)pyrimidin-4-yl)amino)-4-isopropyl-2,7-naphthyridin-1-yl)-1-thia-6-azaspiro[3.3]heptane 1,1-dioxide or 6-(6-((2-((4R,5S)-5-fluoro-4-hydroxy-3,3-dimethylpiperidin-1-yl)pyrimidin-4-yl)amino)-4-isopropyl-2,7-naphthyridin-1-yl)-1-thia-6-azaspiro[3.3]heptane 1,1-dioxide] were, in that order, less than 15 nM and 10 to 20 nM.
Regarding `CC(C)c1cnc(N2C[C@H](O)[C@H]2C)c2cnc(Nc3ccnc(N4C[C@@H](F)[C@@H](O)[C@@](C)(F)C4)n3)cc12` (single isomer, unassigned) [Example 133, (3S,4R,5R)-3,5-difluoro-1-(4-((8-((2R,3S)-3-hydroxy-2-methylazetidin-1-yl)-5-isopropyl-2,7-naphthyridin-3-yl)amino)pyrimidin-2-yl)-3-methylpiperidin-4-ol or (3R,4S,5S)-3,5-difluoro-1-(4-((8-((2R,3S)-3-hydroxy-2-methylazetidin-1-yl)-5-isopropyl-2,7-naphthyridin-3-yl)amino)pyrimidin-2-yl)-3-methylpiperidin-4-ol], the IC50 on EGFR (L858R T790M C797S) was less than 15 nM; in experiment [1], 10 to 20 nM.
With `CC(C)c1cnc(N2C[C@H](O)[C@H]2C)c2cnc(Nc3ccnc(N4C[C@H](F)[C@H](O)[C@](C)(F)C4)n3)cc12` (single isomer, unassigned) [Example 134, (3R,4S,5S)-3,5-difluoro-1-(4-((8-((2R,3S)-3-hydroxy-2-methylazetidin-1-yl)-5-isopropyl-2,7-naphthyridin-3-yl)amino)pyrimidin-2-yl)-3-methylpiperidin-4-ol or (3S,4R,5R)-3,5-difluoro-1-(4-((8-((2R,3S)-3-hydroxy-2-methylazetidin-1-yl)-5-isopropyl-2,7-naphthyridin-3-yl)amino)pyrimidin-2-yl)-3-methylpiperidin-4-ol], the values for the IC50 (on EGFR (L858R T790M C797S); in experiment [1]) were 30 to 100 nM and more than 50 nM, respectively.
The like results for `CC(C)c1cnc(N2C[C@H](O)[C@H]2C)c2cnc(Nc3ccnc(N4C[C@H](F)[C@H](O)[C@@](C)(F)C4)n3)cc12` (single isomer, unassigned) [Example 135, (3S,4S,5S)-3,5-difluoro-1-(4-((8-((2R,3S)-3-hydroxy-2-methylazetidin-1-yl)-5-isopropyl-2,7-naphthyridin-3-yl)amino)pyrimidin-2-yl)-3-methylpiperidin-4-ol or (3R,4R,5R)-3,5-difluoro-1-(4-((8-((2R,3S)-3-hydroxy-2-methylazetidin-1-yl)-5-isopropyl-2,7-naphthyridin-3-yl)amino)pyrimidin-2-yl)-3-methylpiperidin-4-ol] were, in that order, 20 to 30 nM and more than 50 nM.
`CC(C)c1cnc(N2C[C@H](O)[C@H]2C)c2cnc(Nc3ccnc(N4C[C@@H](F)[C@@H](O)[C@](C)(F)C4)n3)cc12` (single isomer, unassigned) [Example 136, (3R,4R,5R)-3,5-difluoro-1-(4-((8-((2R,3S)-3-hydroxy-2-methylazetidin-1-yl)-5-isopropyl-2,7-naphthyridin-3-yl)amino)pyrimidin-2-yl)-3-methylpiperidin-4-ol or (3S,4S,5S)-3,5-difluoro-1-(4-((8-((2R,3S)-3-hydroxy-2-methylazetidin-1-yl)-5-isopropyl-2,7-naphthyridin-3-yl)amino)pyrimidin-2-yl)-3-methylpiperidin-4-ol]: the IC50 was less than 15 nM at EGFR (L858R T790M C797S) and 20 to 30 nM in experiment [1].
As for `CC(C)c1cnc(N2C[C@H](O)[C@H]2C)c2cnc(Nc3ccnc(N4C[C@@H](F)[C@@H](O)C(C)(C)C4)n3)cc12` (single isomer, unassigned) [Example 145, (4S,5R)-5-fluoro-1-(4-((8-((2R,3S)-3-hydroxy-2-methylazetidin-1-yl)-5-isopropyl-2,7-naphthyridin-3-yl)amino)pyrimidin-2-yl)-3,3-dimethylpiperidin-4-ol or (4R,5S)-5-fluoro-1-(4-((8-((2R,3S)-3-hydroxy-2-methylazetidin-1-yl)-5-isopropyl-2,7-naphthyridin-3-yl)amino)pyrimidin-2-yl)-3,3-dimethylpiperidin-4-ol], the IC50 on EGFR (L858R T790M C797S) is less than 15 nM; in experiment [1], 20 to 30 nM.
The like results for `CC(C)c1cnc(N2CC(O)C2)c2cnc(Nc3ccnc(N4CC[C@@]5(CCO5)C(F)(F)C4)n3)cc12` (single isomer, unassigned) [Example 146, (R)-1-(6-((2-(5,5-difluoro-1-oxa-7-azaspiro[3.5]nonan-7-yl)pyrimidin-4-yl)amino)-4-isopropyl-2,7-naphthyridin-1-yl)azetidin-3-ol or (S)-1-(6-((2-(5,5-difluoro-1-oxa-7-azaspiro[3.5]nonan-7-yl)pyrimidin-4-yl)amino)-4-isopropyl-2,7-naphthyridin-1-yl)azetidin-3-ol] were, in that order, less than 15 nM and 30 to 50 nM.
The like results for `CC(C)c1cnc(N2C[C@@H](C(=O)N(C)C)[C@@H]2C)c2cnc(Nc3ccnc(N4CC[C@@H](O)[C@@](C)(F)C4)n3)cc12` (single isomer, unassigned) [Example 155, (2S,3R)-1-(6-((2-((3S,4R)-3-fluoro-4-hydroxy-3-methylpiperidin-1-yl)pyrimidin-4-yl)amino)-4-isopropyl-2,7-naphthyridin-1-yl)-N,N,2-trimethylazetidine-3-carboxamide or (2R,3S)-1-(6-((2-((3S,4R)-3-fluoro-4-hydroxy-3-methylpiperidin-1-yl)pyrimidin-4-yl)amino)-4-isopropyl-2,7-naphthyridin-1-yl)-N,N,2-trimethylazetidine-3-carboxamide] were, in that order, less than 15 nM and less than 10 nM.
